Among the data in ChEMBL document CHEMBL1201862, “PubChem BioAssay data set” (2004) are AC50, EC50 and IC50 values, retold here.

Assay [1] can be described thus: blockers of HIV-1 ZM109 envelope-driven cell-cell fusion – HeLa effector, CEM target cells, luciferase, cherry-pick, dose response (AID 652058).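 Note: luciferase signal from HIV-1 Env mediated cell-cell fusion of effector and target cells.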 The format is functional, cell-based.
Assay [2] in a line: HIV-1 AD8 envelope cell-cell fusion blockers – cherry-pick, dose response (AID 652062).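 Note: luciferase signal from cell-cell fusion driven by HIV-1 clade B AD8 Env; potency is for inhibitors of fusion seen as a drop in luminescence.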 The format is functional, cell-based.
The nature of assay [3]: viability loss in CEM21 cells – cell-based, CellTiter-Glo luminescence, cherry-picked, cytotoxicity control for viral fusion inhibitor project, dose response (AID 652042).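 Note: potency for signal decrease meaning cytotoxicity.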 The format is functional.
Assay [4] is described as follows: off-target signal loss in HeLa-CEM21 co-culture – HeLa F-luc CTL cells, cherry-picked, counter-screen for HIV-1 Env fusion inhibitor project, dose response (AID 652040).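 Note: potency for signal decrease marking cytotoxic or nonspecific inhibition.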 The format is functional, cell-based.
Assay [5] is described as follows: blockers of HIV-1 envelope-mediated cell-cell fusion – cherry-pick, dose response (AID 652057). The format is functional, cell-based.
Assay [6] can be described thus: Shn3 3'UTR reporter signal decrease – cell-based, Clone20 osteoblasts, firefly luciferase, cherry-pick, set 2, Schnurri-3 inhibitor project, dose response (AID 720490).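 Note: actives lower the luminescence signal as inhibitors.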 The format is functional.
A short description of assay [7]: reduction of Shn3 3'UTR-driven luciferase in osteoblasts – cell-based, Clone20 osteoblasts, firefly luciferase, cherry-picked, dose response (AID 624132).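 Note: firefly luciferase luminescence from reporter carrying the Shn3 3'UTR in osteoblasts.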 The format is functional.
Assay [8] deals with Metabotropic glutamate receptor 5 (Rattus norvegicus, UniProt P31424). The assay is described as follows: Identification of a glycine sulfonamide based non-MPEP site positive allosteric potentiator (PAM) of mGlu5 (calcium_assay). The format is functional.
Assay [9] addresses Paired box protein Pax-8 (Homo sapiens, UniProt Q06710). The assay is described as follows: PAX8 transcriptional activity inhibition in RMG-I – RMG-I cells, luciferase, cherry-pick, dose response (AID 687027).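 Note: luciferase reporter driven by Pax8 target thyroperoxidase promoter measured by SteadyGlo luminescence.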 The format is functional, cell-based.
Assay [10] is described as follows: OVCAR8 cell viability loss – plate reader, dry powder samples, PAX8 project, dose response (AID 743197). The format is functional, cell-based. To be noted: OVCAR-8.
The nature of assay [11]: OVCAR-3 cell viability loss – plate reader, dry powder samples, PAX8 inhibitor project, dose response (AID 743044). The format is functional, cell-based.
Assay [12] concerns the target Disintegrin and metalloproteinase domain-containing protein 17 (Homo sapiens, UniProt P78536). The assay is described as follows: exosite inhibitors of ADAM17, dose response, biochemical (AID 743260).
Assay [13] is described as follows: inhibition of ADAM10 peptide cleavage – biochemical, FRET peptide substrate, recombinant human ADAM10, selectivity assay for ADAM17 exosite inhibitor project, dose response (AID 743259).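 Note: ADAM10 enzyme cleaving a FRET peptide substrate.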
The nature of assay [14]: Luminescence Cell-Based Dose Retest to Confirm Inhibitors of Cancer Stem Cells. [Related pubchem assays (depositor defined):AID2717, AID2721]. The format is functional. The conditions noted are these: Homo sapiens.
Assay [15] is described as follows: P. falciparum Dd2 growth inhibitors, dose response, SYBR Green, cherry-picked samples (AID 1159567). The format is functional, cell-based.
The nature of assay [16]: toxicity to human hepatoma HepG2 cells – cell-based, cherry-picked samples, cytotoxicity control, dose response (AID 1159577). The format is functional.

Structures are written as SMILES. Activity calls are given as the source filed them.

Metabotropic glutamate receptor 5, sequence (P31424 whole entry): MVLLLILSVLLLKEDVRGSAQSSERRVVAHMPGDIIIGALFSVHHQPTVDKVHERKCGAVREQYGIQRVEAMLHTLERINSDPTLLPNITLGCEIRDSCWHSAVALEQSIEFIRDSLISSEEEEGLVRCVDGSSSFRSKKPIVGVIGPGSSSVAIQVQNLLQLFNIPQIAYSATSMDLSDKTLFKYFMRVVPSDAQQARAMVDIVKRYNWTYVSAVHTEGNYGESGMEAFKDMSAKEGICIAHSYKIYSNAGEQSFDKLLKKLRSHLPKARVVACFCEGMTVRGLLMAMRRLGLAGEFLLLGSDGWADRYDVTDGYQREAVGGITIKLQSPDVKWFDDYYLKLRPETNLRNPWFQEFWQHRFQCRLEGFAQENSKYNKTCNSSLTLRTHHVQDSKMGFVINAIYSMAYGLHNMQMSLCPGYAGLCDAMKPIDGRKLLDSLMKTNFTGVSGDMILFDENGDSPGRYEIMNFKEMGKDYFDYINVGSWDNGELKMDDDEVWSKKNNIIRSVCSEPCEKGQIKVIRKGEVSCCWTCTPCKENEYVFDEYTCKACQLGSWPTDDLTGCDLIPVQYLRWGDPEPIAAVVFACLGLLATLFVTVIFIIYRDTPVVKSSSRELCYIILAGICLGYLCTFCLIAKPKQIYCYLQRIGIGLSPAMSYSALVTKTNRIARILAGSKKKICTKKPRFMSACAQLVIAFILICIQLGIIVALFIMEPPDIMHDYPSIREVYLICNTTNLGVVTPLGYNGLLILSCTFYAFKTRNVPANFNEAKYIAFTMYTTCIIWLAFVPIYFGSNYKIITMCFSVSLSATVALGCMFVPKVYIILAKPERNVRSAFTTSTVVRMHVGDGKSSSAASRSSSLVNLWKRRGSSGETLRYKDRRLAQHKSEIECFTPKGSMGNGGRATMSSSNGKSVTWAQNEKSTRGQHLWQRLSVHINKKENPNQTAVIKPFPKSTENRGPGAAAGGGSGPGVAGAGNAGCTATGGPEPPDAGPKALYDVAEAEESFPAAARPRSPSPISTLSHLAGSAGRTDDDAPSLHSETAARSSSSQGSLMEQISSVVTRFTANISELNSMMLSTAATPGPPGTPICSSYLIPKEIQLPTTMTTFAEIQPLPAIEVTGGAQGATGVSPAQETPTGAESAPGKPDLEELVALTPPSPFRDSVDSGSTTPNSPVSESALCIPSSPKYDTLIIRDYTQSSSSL
Disintegrin and metalloproteinase domain-containing protein 17, sequence (P78536 whole entry, the tested form may be a part): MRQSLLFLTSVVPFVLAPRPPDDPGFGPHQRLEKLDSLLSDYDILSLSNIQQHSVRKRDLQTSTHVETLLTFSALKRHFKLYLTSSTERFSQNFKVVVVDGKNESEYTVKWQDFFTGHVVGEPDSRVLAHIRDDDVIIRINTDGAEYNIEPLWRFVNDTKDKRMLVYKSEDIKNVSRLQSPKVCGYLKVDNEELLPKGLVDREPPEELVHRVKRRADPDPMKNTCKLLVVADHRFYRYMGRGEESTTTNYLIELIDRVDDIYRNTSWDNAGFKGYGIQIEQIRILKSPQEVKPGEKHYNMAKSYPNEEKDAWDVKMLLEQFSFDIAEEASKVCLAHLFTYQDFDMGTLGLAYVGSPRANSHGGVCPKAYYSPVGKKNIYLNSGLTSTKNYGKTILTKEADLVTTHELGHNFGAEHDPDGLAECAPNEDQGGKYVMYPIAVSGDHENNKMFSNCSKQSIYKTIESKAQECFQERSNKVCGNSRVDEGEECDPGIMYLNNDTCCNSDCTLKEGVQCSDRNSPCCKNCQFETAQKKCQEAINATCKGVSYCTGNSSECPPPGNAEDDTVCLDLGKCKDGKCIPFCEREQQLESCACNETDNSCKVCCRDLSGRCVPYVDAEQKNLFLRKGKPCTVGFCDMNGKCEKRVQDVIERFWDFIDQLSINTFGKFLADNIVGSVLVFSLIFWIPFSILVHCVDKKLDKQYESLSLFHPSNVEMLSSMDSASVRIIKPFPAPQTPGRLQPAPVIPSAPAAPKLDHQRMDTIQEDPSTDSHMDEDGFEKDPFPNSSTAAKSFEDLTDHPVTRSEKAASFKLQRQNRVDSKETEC
Paired box protein Pax-8, sequence (Q06710 whole entry): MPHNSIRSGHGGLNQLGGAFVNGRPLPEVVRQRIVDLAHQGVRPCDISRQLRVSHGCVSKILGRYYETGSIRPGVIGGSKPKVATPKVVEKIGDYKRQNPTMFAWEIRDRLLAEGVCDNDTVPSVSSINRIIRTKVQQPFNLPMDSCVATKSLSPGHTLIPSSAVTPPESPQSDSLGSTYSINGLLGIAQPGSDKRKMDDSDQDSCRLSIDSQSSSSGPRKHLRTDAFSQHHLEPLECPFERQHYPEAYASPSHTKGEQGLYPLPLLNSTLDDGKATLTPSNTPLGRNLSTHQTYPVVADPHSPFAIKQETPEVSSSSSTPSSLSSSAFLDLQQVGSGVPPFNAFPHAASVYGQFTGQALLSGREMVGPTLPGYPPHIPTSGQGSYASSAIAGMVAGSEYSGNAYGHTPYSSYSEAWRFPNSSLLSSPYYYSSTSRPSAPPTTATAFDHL

For orientation: AC50 means the concentration giving half of the maximal activity seen. Consider `Cc1ccccc1S(=O)(=O)N(C)C[C@@H]1OCc2ccccc2-c2c(n(C)c3ccccc23)C(=O)N([C@H](C)CO)C[C@@H]1C`, for which the AC50 in assay [1] is 1.75 µM (active); in assay [2] it was 3.16 µM (active); in [3], 31.6 µM (active); in [4], 1.66 µM (active); in [5], 1.37 µM (active).
On to `CCCCN1CC(COCc2ccccc2)Oc2cccc(Oc3ccc(C(C)C)cc3)c2S1(=O)=O` (configuration not stated), for which the values for the half-maximal activity concentration (AC50) in [6] and in assay [7] were 4.4 µM (active) and 5.03 µM (active), respectively.
What is called EC50 is the concentration at which the effect is half-maximal. As for `CS(=O)(=O)N(CC(=O)Nc1ccccc1)c1ccccc1Cl`, the EC50 in assay [8] was 0.049 µM.
As for `C[C@H]1CCCCO[C@H](CN(C)C(=O)C2CCCCC2)[C@@H](C)CN([C@@H](C)CO)C(=O)c2cc(NS(=O)(=O)c3ccc(Cl)cc3)ccc2O1`, the AC50 in [9] was 11.5 µM (active); in assay [10] it was > 70 µM (inactive); in assay [11] it was 33.9 µM (active).
In the case of `CS(=O)(=O)N1c2ccccc2CCC1C(=O)Nc1nccs1` (configuration not stated), the EC50 in [8] was 4.43 µM.
On the same count and under the same terms, then `CC(C)NC(=O)CN(c1ccccc1Cl)S(C)(=O)=O`, with > 30 µM (inactive).
In general, IC50 refers to the concentration that inhibits the measured activity by half. Turning to `CCOC(=O)C1=C(C(=O)OCC)C2N(Cc3ccc(C#N)cc3)c3ccccc3[C@@]23C[C@@H](C(=O)OC)N(S(=O)(=O)c2ccc(OC)cc2)C3=N1` (some centres not stated), the IC50 in assay [12] is > 69.5 µM (inactive); in [13] it was 15.4 µM (inactive).
In the case of `C/C(=N/Nc1ccc([N+](=O)[O-])cc1)c1ccc(C)cc1C`, the IC50 was > 69.5 µM (inactive) in assay [12] and 20.5 µM (inactive) in [13]. Besides, the AC50 in assay [14] was 5.92 µM (active).
In the case of `N#Cc1ccc(-c2ccc([C@@H]3[C@@H]4CN(Cc5ccccc5F)C[C@H]3N4)cc2)cc1`, the figures for the half-maximal activity concentration (AC50) in assay [15] and in assay [16] were 1.88 µM (active) and 9.39 µM (active), respectively.
As to `COc1cccc(CN2C[C@@H]3N[C@H](C2)[C@@H]3c2ccc(-c3ccncc3)cc2)c1`, the AC50 in [15] is 4.63 µM (active); in [16] it was > 39 µM (inactive).
